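GI50 = concentration required for 50% inhibition of growth. TGI denotes the concentration required for complete inhibition of growth.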
Legend:
Experiment in all cases: DTP human tumour cell line panel, 384-well format
HS 578T breast = tested on: HS 578T breast
UACC-62 melanoma = tested on: UACC-62 melanoma
LOX IMVI melanoma = tested on: LOX IMVI melanoma
HOP-62 NSCLC = tested on: HOP-62 NSCLC
NCI-H226 lung = tested on: NCI-H226 lung
HCT-116 colon = tested on: HCT-116 colon
786-0 renal = tested on: 786-0 renal
MALME-3M melanoma = tested on: MALME-3M melanoma
SK-MEL-5 melanoma = tested on: SK-MEL-5 melanoma
OVCAR-3 ovarian = tested on: OVCAR-3 ovarian
HL-60(TB) leukemia = tested on: HL-60(TB) leukemia
HT29 colon = tested on: HT29 colon
SF-539 CNS = tested on: SF-539 CNS
M14 melanoma = tested on: M14 melanoma
MDA-MB-435 melanoma = tested on: MDA-MB-435 melanoma
SNB-75 CNS = tested on: SNB-75 CNS
MCF7 breast = tested on: MCF7 breast
HCT-15 colon = tested on: HCT-15 colon
EKVX NSCLC = tested on: EKVX NSCLC
NCI-H460 NSCLC = tested on: NCI-H460 NSCLC
TK-10 renal = tested on: TK-10 renal
KM12 colon = tested on: KM12 colon
SK-OV-3 ovarian = tested on: SK-OV-3 ovarian
DU-145 prostate = tested on: DU-145 prostate
SR leukemia = tested on: SR leukemia
NCI-H23 lung = tested on: NCI-H23 lung
SN12C renal = tested on: SN12C renal
ACHN renal = tested on: ACHN renal
OVCAR-4 ovarian = tested on: OVCAR-4 ovarian
UACC-257 melanoma = tested on: UACC-257 melanoma
A549 NSCLC = tested on: A549 NSCLC
OVCAR-5 ovarian = tested on: OVCAR-5 ovarian
SF-268 CNS = tested on: SF-268 CNS
MDA-MB-468 breast = tested on: MDA-MB-468 breast
MOLT-4 leukemia = tested on: MOLT-4 leukemia
T-47D breast = tested on: T-47D breast
SNB-19 CNS = tested on: SNB-19 CNS
RPMI-8226 leukemia = tested on: RPMI-8226 leukemia
SF-295 CNS = tested on: SF-295 CNS
MDA-MB-231 breast = tested on: MDA-MB-231 breast
HOP-92 NSCLC = tested on: HOP-92 NSCLC
CAKI-1 renal = tested on: CAKI-1 renal
NCI/ADR-RES ovarian = tested on: NCI/ADR-RES ovarian
SK-MEL-28 melanoma = tested on: SK-MEL-28 melanoma
A498 renal = tested on: A498 renal
CCRF-CEM leukemia = tested on: CCRF-CEM leukemia
PC-3 prostate = tested on: PC-3 prostate
IGROV1 ovarian = tested on: IGROV1 ovarian
NCI-H522 lung = tested on: NCI-H522 lung
RXF 393 renal = tested on: RXF 393 renal
NCI-H322M lung = tested on: NCI-H322M lung
HCC-2998 colon = tested on: HCC-2998 colon
COLO 205 colon = tested on: COLO 205 colon
U251 glioblastoma = tested on: U251 glioblastoma
OVCAR-8 ovarian = tested on: OVCAR-8 ovarian
BT-549 breast = tested on: BT-549 breast
SW-620 colon = tested on: SW-620 colon
UO-31 renal = tested on: UO-31 renal

`COc1cc(Nc2c(C#N)cnc3cc(OCCCN4CCN(C)CC4)c(OC)cc23)c(Cl)cc1Cl` showed a GI50 (HS 578T breast) of 1290 nM, a TGI (HS 578T breast) of 4240 nM and a GI50 (UACC-62 melanoma) of 1440 nM. The TGI (UACC-62 melanoma) was 2880 nM, the GI50 (LOX IMVI melanoma) was 637 nM and the TGI (LOX IMVI melanoma) was 2130 nM. The GI50 (HOP-62 NSCLC) was 1690 nM, the TGI (HOP-62 NSCLC) was 5020 nM and the GI50 (NCI-H226 lung) was 2770 nM. The TGI (NCI-H226 lung) was 6250 nM, the GI50 (HCT-116 colon) was 1150 nM and the TGI (HCT-116 colon) was 2570 nM. The GI50 (786-0 renal) was 764 nM, the TGI (786-0 renal) was 2580 nM and the GI50 (MALME-3M melanoma) was 1040 nM. The TGI (MALME-3M melanoma) was 2470 nM, the GI50 (SK-MEL-5 melanoma) was 1240 nM and the TGI (SK-MEL-5 melanoma) was 2540 nM. For the same molecule, the GI50 (OVCAR-3 ovarian) was 1490 nM, the TGI (OVCAR-3 ovarian) was 5020 nM and the GI50 (HL-60(TB) leukemia) was 1390 nM. It also gave a TGI (HL-60(TB) leukemia) of 2720 nM, a GI50 (HT29 colon) of 1430 nM and a TGI (HT29 colon) of 3590 nM. It also gave a GI50 (SF-539 CNS) of 1550 nM, a TGI (SF-539 CNS) of 2990 nM and a GI50 (M14 melanoma) of 1160 nM. It also gave a TGI (M14 melanoma) of 2490 nM, a GI50 (MDA-MB-435 melanoma) of 2120 nM and a TGI (MDA-MB-435 melanoma) of 5430 nM. It also gave a GI50 (SNB-75 CNS) of 951 nM, a TGI (SNB-75 CNS) of 3320 nM and a GI50 (MCF7 breast) of 2400 nM. The TGI (MCF7 breast) was 5380 nM, the GI50 (HCT-15 colon) was 1140 nM and the TGI (HCT-15 colon) was 3740 nM. For the same molecule, the GI50 (EKVX NSCLC) was 1570 nM, the TGI (EKVX NSCLC) was 5850 nM and the GI50 (NCI-H460 NSCLC) was 1620 nM. The TGI (NCI-H460 NSCLC) was 5140 nM, the GI50 (TK-10 renal) was 584 nM and the TGI (TK-10 renal) was 3520 nM. The GI50 (KM12 colon) was 448 nM, the TGI (KM12 colon) was 4030 nM and the GI50 (SK-OV-3 ovarian) was 416 nM. For the same molecule, the TGI (SK-OV-3 ovarian) was 4210 nM, the GI50 (DU-145 prostate) was 645 nM and the TGI (DU-145 prostate) was 2850 nM. The GI50 (SR leukemia) was 1370 nM, the TGI (SR leukemia) was 2680 nM and the GI50 (NCI-H23 lung) was 1690 nM. For the same molecule, the TGI (NCI-H23 lung) was 4260 nM, the GI50 (SN12C renal) was 301 nM and the TGI (SN12C renal) was 4140 nM. The GI50 (ACHN renal) was 443 nM, the TGI (ACHN renal) was 4050 nM and the GI50 (OVCAR-4 ovarian) was 1850 nM. The TGI (OVCAR-4 ovarian) was 4180 nM, the GI50 (UACC-257 melanoma) was 1610 nM and the TGI (UACC-257 melanoma) was 2980 nM. For the same molecule, the GI50 (A549 NSCLC) was 1600 nM, the TGI (A549 NSCLC) was 4640 nM and the GI50 (OVCAR-5 ovarian) was 1840 nM. It also gave a TGI (OVCAR-5 ovarian) of 6660 nM, a GI50 (SF-268 CNS) of 1850 nM and a TGI (SF-268 CNS) of 5520 nM. The GI50 (MDA-MB-468 breast) was 998 nM, the TGI (MDA-MB-468 breast) was 2660 nM and the GI50 (MOLT-4 leukemia) was 612 nM. It also gave a TGI (MOLT-4 leukemia) of 2000 nM, a GI50 (T-47D breast) of 1340 nM and a TGI (T-47D breast) of 5410 nM. For the same molecule, the GI50 (SNB-19 CNS) was 3510 nM, the TGI (SNB-19 CNS) was 9260 nM and the GI50 (RPMI-8226 leukemia) was 898 nM. For the same molecule, the TGI (RPMI-8226 leukemia) was 2350 nM, the GI50 (SF-295 CNS) was 2680 nM and the TGI (SF-295 CNS) was 5770 nM. It also gave a GI50 (MDA-MB-231 breast) of 1410 nM, a TGI (MDA-MB-231 breast) of 2760 nM and a GI50 (HOP-92 NSCLC) of 1100 nM. It also gave a TGI (HOP-92 NSCLC) of 2790 nM, a GI50 (CAKI-1 renal) of 431 nM and a TGI (CAKI-1 renal) of 2090 nM. For the same molecule, the GI50 (NCI/ADR-RES ovarian) was 2140 nM, the TGI (NCI/ADR-RES ovarian) was 4660 nM and the GI50 (SK-MEL-28 melanoma) was 1560 nM. It also gave a TGI (SK-MEL-28 melanoma) of 2980 nM, a GI50 (A498 renal) of 806 nM and a TGI (A498 renal) of 3610 nM. For the same molecule, the GI50 (CCRF-CEM leukemia) was 2040 nM, the TGI (CCRF-CEM leukemia) was 3640 nM and the GI50 (PC-3 prostate) was 2580 nM. The TGI (PC-3 prostate) was 7120 nM, the GI50 (IGROV1 ovarian) was 146 nM and the TGI (IGROV1 ovarian) was 899 nM. The GI50 (NCI-H522 lung) was 133 nM, the TGI (NCI-H522 lung) was 2780 nM and the GI50 (RXF 393 renal) was 368 nM. It also gave a TGI (RXF 393 renal) of 1460 nM, a GI50 (NCI-H322M lung) of 423 nM and a TGI (NCI-H322M lung) of 2360 nM. It also gave a GI50 (HCC-2998 colon) of 2200 nM, a TGI (HCC-2998 colon) of 4350 nM and a GI50 (COLO 205 colon) of 2010 nM. The TGI (COLO 205 colon) was 5450 nM, the GI50 (U251 glioblastoma) was 2100 nM and the TGI (U251 glioblastoma) was 4700 nM. For the same molecule, the GI50 (OVCAR-8 ovarian) was 1940 nM, the TGI (OVCAR-8 ovarian) was 5020 nM and the GI50 (BT-549 breast) was 1210 nM. The TGI (BT-549 breast) was 3310 nM, the GI50 (SW-620 colon) was 2620 nM and the TGI (SW-620 colon) was 5860 nM. For the same molecule, the GI50 (UO-31 renal) was 476 nM and the TGI (UO-31 renal) was 2560 nM.

Reference: PubChem BioAssay (NCI)
